{
  "source": "patent US11802111B2",
  "about": "“Cyclobutyl amide monoacylglycerol lipase modulators” (Janssen Pharmaceutica NV, priority 2020, dated 2023)",
  "data": [
    {"molecular_target": "human MGL from HeLa cells (Homo sapiens (Human), UniProt Q99685)", "sequence (Q99685 whole entry)": "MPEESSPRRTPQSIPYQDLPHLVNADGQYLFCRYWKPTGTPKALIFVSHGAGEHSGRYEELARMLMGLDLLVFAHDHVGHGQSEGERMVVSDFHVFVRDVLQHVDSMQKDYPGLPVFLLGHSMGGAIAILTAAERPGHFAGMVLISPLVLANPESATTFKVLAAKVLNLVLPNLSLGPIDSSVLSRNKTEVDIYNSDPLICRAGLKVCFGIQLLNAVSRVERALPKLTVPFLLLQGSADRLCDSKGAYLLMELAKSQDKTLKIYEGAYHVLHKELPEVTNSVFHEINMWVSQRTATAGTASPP", "assay": "MGL in vitro activity assay ([glycerol-1,3-3H]-oleoyl glycerol hydrolysis, activated carbon filtration)", "format": "biochemical", "conditions": "300 nM [Glycerol-1,3-3H]-oleoyl glycerol, one hour", "in_short": "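Endogenous human MGL in HeLa cells/homogenates incubated 1 h with test compounds and 300 nM [glycerol-1,3-3H]-oleoyl glycerol. Released 3H-glycerol passing an activated carbon filter counted as activity; screening at 10 μM compound, top IC50 concentration set empirically.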", "units": {"IC50": "nM"}, "values": [
      {"smiles": "C[C@@H](c1ccc2cnn(C)c2c1)C1CC2(C1)CN(C(=O)[C@H]1C[C@@](C)(O)C1)C2", "note": "(stereo in doubt) [Example 314, ((1s,3*S)-3-Hydroxy-3-methylcyclobutyl)(6-((*R)-1-(1-methyl-1H-indazol-6-yl)ethyl)-2-azaspiro[3.3]heptan-2-yl)methanone]", "IC50": 130},
      {"smiles": "C[C@H](c1ccc2cnn(C)c2c1)C1CC2(C1)CN(C(=O)[C@H]1C[C@@](C)(O)C1)C2", "note": "(stereo in doubt) [Example 315, ((1s,3*R)-3-Hydroxy-3-methylcyclobutyl)(6-((*S)-1-(1-methyl-1H-indazol-6-yl)ethyl)-2-azaspiro[3.3]heptan-2-yl)methanone]", "IC50": 45},
      {"smiles": "Cc1ccc([C@H]2CCC3(C2)CN(C(=O)[C@H]2C[C@@](C)(O)C2)C3)c(C)c1", "note": "(stereo in doubt) [Example 321, ((*S)-6-(2,4-Dimethylphenyl)-2-azaspiro[3.4]octan-2-yl)((1s,3*R)-3-hydroxy-3-methylcyclobutyl)methanone]", "IC50": 36},
      {"smiles": "Cc1ccc([C@@H]2CCC3(C2)CN(C(=O)[C@H]2C[C@@](C)(O)C2)C3)c(C)c1", "note": "(stereo in doubt) [Example 322, ((*R)-6-(2,4-Dimethylphenyl)-2-azaspiro[3.4]octan-2-yl)((1s,3*S)-3-hydroxy-3-methylcyclobutyl)methanone]", "IC50": 64},
      {"smiles": "Cc1cc(C)cc([C@H]2CC[C@]3(CC2)CN(C(=O)[C@H]2C[C@@](C)(O)C2)[C@H]3C)c1", "note": "(stereo in doubt) [Example 348, ((1*S,4r,7*S)-7-(3,5-Dimethylphenyl)-1-methyl-2-azaspiro[3.5]nonan-2-yl)((1s,3*R)-3-hydroxy-3-methylcyclobutyl)methanone]", "IC50": 326},
      {"smiles": "Cc1cc(C)cc([C@H]2CC[C@]3(CC2)CN(C(=O)[C@H]2C[C@@](C)(O)C2)[C@@H]3C)c1", "note": "(stereo in doubt) [Example 349, ((1*R,4r,7*R)-7-(3,5-Dimethylphenyl)-1-methyl-2-azaspiro[3.5]nonan-2-yl)((1s,3*S)-3-hydroxy-3-methylcyclobutyl)methanone]", "IC50": 523},
      {"smiles": "Cc1cc(C)cc([C@H]2CC[C@@]3(CC2)CN(C(=O)[C@H]2C[C@@](C)(O)C2)[C@H]3C)c1", "note": "(stereo in doubt) [Example 350, ((1*S,4s,7*R)-7-(3,5-Dimethylphenyl)-1-methyl-2-azaspiro[3.5]nonan-2-yl)((1s,3*R)-3-hydroxy-3-methylcyclobutyl)methanone]", "IC50": 34},
      {"smiles": "Cc1cc(C)cc([C@H]2CC[C@@]3(CC2)CN(C(=O)[C@H]2C[C@@](C)(O)C2)[C@@H]3C)c1", "note": "(stereo in doubt) [Example 351, ((1*R,4s,7*S)-7-(3,5-Dimethylphenyl)-1-methyl-2-azaspiro[3.5]nonan-2-yl)((1s,3*S)-3-hydroxy-3-methylcyclobutyl)methanone]", "IC50": 77},
      {"smiles": "Cc1nc(O[C@H]2CCC3(C[C@@H]2C)CN(C(=O)[C@H]2C[C@@](C)(O)C2)C3)ccc1C(F)(F)F", "note": "(stereo in doubt) [Example 444, ((1s,3*R)-3-Hydroxy-3-methylcyclobutyl)((6*S,7*S)-6-methyl-7-((6-methyl-5-(trifluoromethyl)pyridin-2-yl)oxy)-2-azaspiro[3.5]nonan-2-yl)methanone]", "IC50": 4.8},
      {"smiles": "Cc1nc(O[C@@H]2CCC3(C[C@H]2C)CN(C(=O)[C@H]2C[C@@](C)(O)C2)C3)ccc1C(F)(F)F", "note": "(stereo in doubt) [Example 445, ((1s,3*S)-3-Hydroxy-3-methylcyclobutyl)((6*R,7*R)-6-methyl-7-((6-methyl-5-(trifluoromethyl)pyridin-2-yl)oxy)-2-azaspiro[3.5]nonan-2-yl)methanone]", "IC50": 33},
      {"smiles": "CC(C)(C)c1cccc(C2CC3(C2)CN(C(=O)[C@H]2C[C@@](C)(O)C2)C3)c1", "note": "[Example 1, (6-(3-(tert-Butyl)phenyl)-2-azaspiro[3.3]heptan-2-yl)((1s,3s)-3-hydroxy-3-methylcyclobutyl)methanone]", "IC50": 9.9},
      {"smiles": "CC(C)(C)c1ccc(C2CC3(C2)CN(C(=O)[C@H]2C[C@@](C)(O)C2)C3)cc1", "note": "[Example 2, (6-(4-(tert-Butyl)phenyl)-2-azaspiro[3.3]heptan-2-yl)((1s,3s)-3-hydroxy-3-methylcyclobutyl)methanone]", "IC50": 149},
      {"smiles": "CC(C)c1cccc(C2CC3(C2)CN(C(=O)[C@H]2C[C@@](C)(O)C2)C3)c1", "note": "[Example 3, ((1s,3s)-3-Hydroxy-3-methylcyclobutyl)(6-(3-isopropylphenyl)-2-azaspiro[3.3]heptan-2-yl)methanone]", "IC50": 24},
      {"smiles": "CC(C)c1ccc(C2CC3(C2)CN(C(=O)[C@H]2C[C@@](C)(O)C2)C3)cc1", "note": "[Example 4, ((1s,3s)-3-Hydroxy-3-methylcyclobutyl)(6-(4-isopropylphenyl)-2-azaspiro[3.3]heptan-2-yl)methanone]", "IC50": 128},
      {"smiles": "C[C@]1(O)C[C@@H](C(=O)N2CC3(CC(c4ccc(C5CC5)cc4)C3)C2)C1", "note": "[Example 5, (6-(4-Cyclopropylphenyl)-2-azaspiro[3.3]heptan-2-yl)((1s,3s)-3-hydroxy-3-methylcyclobutyl)methanone]", "IC50": 292},
      {"smiles": "Cc1ccc(C2CC3(C2)CN(C(=O)[C@H]2C[C@@](C)(O)C2)C3)cc1C(F)(F)F", "note": "[Example 6, ((1s,3s)-3-Hydroxy-3-methylcyclobutyl)(6-(4-methyl-3-(trifluoromethyl)phenyl)-2-azaspiro[3.3]heptan-2-yl)methanone]", "IC50": 31},
      {"smiles": "C[C@]1(O)C[C@@H](C(=O)N2CC3(CC(c4cccc(C5CC5)c4)C3)C2)C1", "note": "[Example 20, (6-(3-Cyclopropylphenyl)-2-azaspiro[3.3]heptan-2-yl)((1s,3s)-3-hydroxy-3-methylcyclobutyl)methanone]", "IC50": 37},
      {"smiles": "Cc1c(C2CC3(C2)CN(C(=O)[C@H]2C[C@@](C)(O)C2)C3)cccc1C(F)(F)F", "note": "[Example 21, ((1s,3s)-3-Hydroxy-3-methylcyclobutyl)(6-(2-methyl-3-(trifluoromethyl)phenyl)-2-azaspiro[3.3]heptan-2-yl)methanone]", "IC50": 112},
      {"smiles": "Cc1ccc(C2CCC3(CC2)CN(C(=O)[C@H]2C[C@@](C)(O)C2)C3)cc1Cl", "note": "[Example 22, (7-(3-Chloro-4-methylphenyl)-2-azaspiro[3.5]nonan-2-yl)((1s,3s)-3-hydroxy-3-methylcyclobutyl)methanone]", "IC50": 12},
      {"smiles": "Cc1ccc(C2CC3(C2)CN(C(=O)[C@H]2C[C@@](C)(O)C2)C3)cc1OC(F)(F)F", "note": "[Example 23, ((1s,3s)-3-Hydroxy-3-methylcyclobutyl)(6-(4-methyl-3-(trifluoromethoxy)phenyl)-2-azaspiro[3.3]heptan-2-yl)methanone]", "IC50": 45},
      {"smiles": "Cc1ccc(C2CC3(C2)CN(C(=O)[C@H]2C[C@@](C)(O)C2)C3)cc1C1CC1", "note": "[Example 27, (6-(3-Cyclopropyl-4-methylphenyl)-2-azaspiro[3.3]heptan-2-yl)((1s,3s)-3-hydroxy-3-methylcyclobutyl)methanone]", "IC50": 47},
      {"smiles": "Cc1cc(C2CC2)ccc1C1CC2(C1)CN(C(=O)[C@H]1C[C@@](C)(O)C1)C2", "note": "[Example 28, (6-(4-Cyclopropyl-2-methylphenyl)-2-azaspiro[3.3]heptan-2-yl)((1s,3s)-3-hydroxy-3-methylcyclobutyl)methanone]", "IC50": 125},
      {"smiles": "C[C@]1(O)C[C@@H](C(=O)N2CC3(CC(c4ccc5ccncc5c4)C3)C2)C1", "note": "[Example 30, ((1s,3s)-3-Hydroxy-3-methylcyclobutyl)(6-(isoquinolin-7-yl)-2-azaspiro[3.3]heptan-2-yl)methanone]", "IC50": 1180}
    ]}
  ]
}
